# In ChEMBL document CHEMBL3885881, “DrugMatrix”:
# Species on record: Rattus norvegicus
# Test: DrugMatrix - Regimen: Daily Repeat
# Format: toxicity, organism-based, Sprague-Dawley
# Set-up: regimen Daily Repeat, gender Male, age 6-8 weeks
# Settings: in vivo, po, 1868 mg/kg, route oral GAVAGE, dose level High, vehicle .5 % CMC; for ABSOLUTE BASOPHIL / ABSOLUTE EOSINOPHIL / ABSOLUTE LYMPHOCYTE / ABSOLUTE MONOCYTE / ABSOLUTE SEGMENTED NEUTROPHIL / BASOPHIL / EOSINOPHIL / ERYTHROCYTE COUNT / HEMATOCRIT / HEMOGLOBIN / LEUKOCYTE COUNT / LYMPHOCYTE / MEAN CORPUSCULAR HEMOGLOBIN / MEAN CORPUSCULAR HEMOGLOBIN CONCENTRATION / MEAN CORPUSCULAR VOLUME / MONOCYTE / NEUTROPHIL / NUCLEATED RED BLOOD CELLS / PLATELET COUNT: tissue Blood
# [1] = 72 h, tissue Plasma, time 3 day
# [2] = 120 h, tissue Plasma, time 5 day
smiles,measurement,setting,value
CC(=O)OCc1ccccc1 [E1501],ABSOLUTE BASOPHIL,"72 h, time 3 day",0 CELLS/uL
same,ABSOLUTE EOSINOPHIL,"72 h, time 3 day",53 CELLS/uL
same,ABSOLUTE LYMPHOCYTE,"72 h, time 3 day",16547 CELLS/uL
same,ABSOLUTE MONOCYTE,"72 h, time 3 day",404 CELLS/uL
same,ABSOLUTE SEGMENTED NEUTROPHIL,"72 h, time 3 day",3196 CELLS/uL
same,BASOPHIL,"72 h, time 3 day",0%
same,EOSINOPHIL,"72 h, time 3 day",0.5%
same,ERYTHROCYTE COUNT,"72 h, time 3 day",6.19 x10E6/uL
same,HEMATOCRIT,"72 h, time 3 day",37.45%
same,HEMOGLOBIN,"72 h, time 3 day",13.25 G/DL
same,LEUKOCYTE COUNT,"72 h, time 3 day",20.2 x10E3/uL
same,LYMPHOCYTE,"72 h, time 3 day",75.5%
same,MEAN CORPUSCULAR HEMOGLOBIN,"72 h, time 3 day",21.45 pg
same,MEAN CORPUSCULAR HEMOGLOBIN CONCENTRATION,"72 h, time 3 day",35.4 G/DL
same,MEAN CORPUSCULAR VOLUME,"72 h, time 3 day",60.6 fL
same,MONOCYTE,"72 h, time 3 day",2%
same,NEUTROPHIL,"72 h, time 3 day",22%
same,NUCLEATED RED BLOOD CELLS,"72 h, time 3 day",0 /100WBC
same,PLATELET COUNT,"72 h, time 3 day",1224 x10E3/uL
same,ALANINE AMINOTRANSFERASE,[1],60 u/L
same,ALBUMIN,[1],4.7 G/DL
same,ALKALINE PHOSPHATASE,[1],462 u/L
same,ASPARTATE AMINOTRANSFERASE,[1],177 u/L
same,BLOOD UREA NITROGEN,[1],54 mg/dL
same,CARBON DIOXIDE,[1],24 mmol/L
same,CHLORIDE,[1],92.5 MEQ/L
same,CHOLESTEROL,[1],57 mg/dL
same,CREATININE,[1],0.49 mg/dL
same,GLUCOSE,[1],276 mg/dL
same,LACTATE DEHYDROGENASE,[1],270.5 u/L
same,LIPASE,[1],9.5 u/L
same,PHOSPHORUS,[1],16.1 mg/dL
same,POTASSIUM,[1],5.06 MEQ/L
same,SODIUM,[1],143.6 MEQ/L
same,TOTAL BILIRUBIN,[1],0.25 mg/dL
same,TOTAL PROTEIN,[1],7 G/DL
same,URIC ACID,[1],2 mg/dL
same,ABSOLUTE BASOPHIL,"120 h, time 5 day",0 CELLS/uL
same,ABSOLUTE EOSINOPHIL,"120 h, time 5 day",243.33 CELLS/uL
same,ABSOLUTE LYMPHOCYTE,"120 h, time 5 day",9225.33 CELLS/uL
same,ABSOLUTE MONOCYTE,"120 h, time 5 day",248.33 CELLS/uL
same,ABSOLUTE SEGMENTED NEUTROPHIL,"120 h, time 5 day",783 CELLS/uL
same,BASOPHIL,"120 h, time 5 day",0%
same,EOSINOPHIL,"120 h, time 5 day",2.33%
same,ERYTHROCYTE COUNT,"120 h, time 5 day",6.51 x10E6/uL
same,HEMATOCRIT,"120 h, time 5 day",38.67%
same,HEMOGLOBIN,"120 h, time 5 day",14.03 G/DL
same,LEUKOCYTE COUNT,"120 h, time 5 day",10.5 x10E3/uL
same,LYMPHOCYTE,"120 h, time 5 day",88%
same,MEAN CORPUSCULAR HEMOGLOBIN,"120 h, time 5 day",21.53 pg
same,MEAN CORPUSCULAR HEMOGLOBIN CONCENTRATION,"120 h, time 5 day",36.3 G/DL
same,MEAN CORPUSCULAR VOLUME,"120 h, time 5 day",59.37 fL
same,MONOCYTE,"120 h, time 5 day",2.33%
same,NEUTROPHIL,"120 h, time 5 day",7.33%
same,NUCLEATED RED BLOOD CELLS,"120 h, time 5 day",0 /100WBC
same,PLATELET COUNT,"120 h, time 5 day",934.67 x10E3/uL
same,ALANINE AMINOTRANSFERASE,[2],127 u/L
same,ALBUMIN,[2],4.53 G/DL
same,ALKALINE PHOSPHATASE,[2],336 u/L
same,ASPARTATE AMINOTRANSFERASE,[2],386 u/L
same,BLOOD UREA NITROGEN,[2],22 mg/dL
same,CARBON DIOXIDE,[2],30 mmol/L
same,CHLORIDE,[2],99.67 MEQ/L
same,CHOLESTEROL,[2],65 mg/dL
same,CREATININE,[2],0.28 mg/dL
same,GLUCOSE,[2],167 mg/dL
same,LACTATE DEHYDROGENASE,[2],574 u/L
same,LIPASE,[2],9.67 u/L
same,PHOSPHORUS,[2],13.07 mg/dL
same,POTASSIUM,[2],6.24 MEQ/L
same,SODIUM,[2],148.47 MEQ/L
same,TOTAL BILIRUBIN,[2],0.17 mg/dL
same,URIC ACID,[2],1.83 mg/dL
same,ABSOLUTE BASOPHIL,"[…], time 11 day",0 CELLS/uL
same,ABSOLUTE EOSINOPHIL,"[…], time 11 day",0 CELLS/uL
same,ABSOLUTE LYMPHOCYTE,"[…], time 11 day",4840 CELLS/uL
same,ABSOLUTE MONOCYTE,"[…], time 11 day",440 CELLS/uL
same,ABSOLUTE SEGMENTED NEUTROPHIL,"[…], time 11 day",3520 CELLS/uL
same,BASOPHIL,"[…], time 11 day",0%
same,EOSINOPHIL,"[…], time 11 day",0%
same,ERYTHROCYTE COUNT,"[…], time 11 day",6.27 x10E6/uL
same,HEMATOCRIT,"[…], time 11 day",37.6%
same,HEMOGLOBIN,"[…], time 11 day",13.8 G/DL
same,LEUKOCYTE COUNT,"[…], time 11 day",8.8 x10E3/uL
same,LYMPHOCYTE,"[…], time 11 day",55%
same,MEAN CORPUSCULAR HEMOGLOBIN,"[…], time 11 day",22 pg
same,MEAN CORPUSCULAR HEMOGLOBIN CONCENTRATION,"[…], time 11 day",36.7 G/DL
same,MEAN CORPUSCULAR VOLUME,"[…], time 11 day",60 fL
same,MONOCYTE,"[…], time 11 day",5%
same,NEUTROPHIL,"[…], time 11 day",40%
same,NUCLEATED RED BLOOD CELLS,"[…], time 11 day",0 /100WBC
